Some test systems named below: A549 NSCLC; MDA-N; CAKI-1 renal; OVCAR-4 ovarian; SF-268 CNS; NCI-H23 lung; DU-145 prostate; UACC-257 melanoma; TK-10 renal; KM12 colon; MCF7 breast; HCT-15 colon; UACC-62 melanoma; MDA-MB-231 breast; SNB-19 CNS; M14 melanoma; ACHN renal; EKVX NSCLC; SK-OV-3 ovarian.
What all share (test): growth of human tumour cells (NCI), 48 h

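Cultured in 96-well plates, cells were exposed to test compound for 48 hours across five concentrations. TGI marks complete inhibition of growth.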

With `Nc1ncc(C=O)c(NCC2(CO)CCC2)n1`, the TGI in the assay with A549 NSCLC is > 100 µM; in the assay with MDA-N, > 100 µM; in the assay with CAKI-1 renal, 44.3 µM; with OVCAR-4 ovarian, > 100 µM; in the assay on SF-268 CNS, > 100 µM; in the assay on NCI-H23 lung, > 100 µM. Also, the TGI is > 100 µM in the assay with DU-145 prostate; > 100 µM in the assay with UACC-257 melanoma; 73.8 µM in the assay on TK-10 renal; > 100 µM in the assay with KM12 colon; > 100 µM with MCF7 breast; > 100 µM in the assay with HCT-15 colon. Moreover, the results for the TGI in the assay with UACC-62 melanoma and in the assay on MDA-MB-231 breast were 81.2 µM and > 100 µM, respectively.

As for `c1ccc(-c2c(-c3cccs3)[nH]c(-c3cccs3)c2-c2ccccn2)nc1`, the TGI in the assay on A549 NSCLC was 72.8 µM; in the assay with MDA-N it was > 100 µM; in the assay on CAKI-1 renal it was > 100 µM; in the assay on SNB-19 CNS, > 100 µM; in the assay with M14 melanoma it was 40.7 µM; with SF-268 CNS it was 49.8 µM. The TGI was > 100 µM in the assay on NCI-H23 lung; > 100 µM in the assay with ACHN renal; > 100 µM in the assay on DU-145 prostate; 43.6 µM in the assay on UACC-257 melanoma; > 100 µM with TK-10 renal; 65.4 µM in the assay with EKVX NSCLC. Besides, the TGI is 62.6 µM in the assay with KM12 colon; 51.3 µM with SK-OV-3 ovarian; 40.4 µM in the assay with HCT-15 colon; 35.6 µM with UACC-62 melanoma; 48.7 µM in the assay on MDA-MB-231 breast.

With `CCNC1=C(NC(=O)c2ccccc2)C(=O)c2ccccc2C1=O`, the TGI in the assay on A549 NSCLC is > 100 µM; with MDA-N, 24.1 µM; in the assay with SNB-19 CNS it was > 100 µM; with M14 melanoma, > 100 µM; in the assay with OVCAR-4 ovarian, > 100 µM; in the assay with NCI-H23 lung it was > 100 µM. In addition, the TGI in the assay with DU-145 prostate is > 100 µM; in the assay with UACC-257 melanoma, 64.5 µM; in the assay with TK-10 renal, > 100 µM; in the assay on KM12 colon, > 100 µM; in the assay on MCF7 breast it was > 100 µM; with SK-OV-3 ovarian, > 100 µM. Besides, the TGI in the assay on HCT-15 colon, in the assay with UACC-62 melanoma and with MDA-MB-231 breast was > 100 µM each time.

With `S=C(N/N=C/c1ccccn1)N1CC2CCC(CC2)C1`, the TGI amounted to 14.2 µM in the assay with A549 NSCLC; 13.1 µM in the assay with MDA-N; 1.82 µM in the assay with CAKI-1 renal; 14.3 µM with SNB-19 CNS; 0.209 µM with M14 melanoma; 20.4 µM in the assay with OVCAR-4 ovarian. The TGI with SF-268 CNS is 14.8 µM; in the assay on NCI-H23 lung it was 7.7 µM; with ACHN renal, 2.15 µM; in the assay with DU-145 prostate, 12 µM; in the assay on UACC-257 melanoma, < 0.039 µM; with TK-10 renal, 1.82 µM. Besides, the TGI with EKVX NSCLC stood at 7.05 µM; in the assay on KM12 colon it was 7.76 µM; in the assay on SK-OV-3 ovarian, 5.7 µM; in the assay with HCT-15 colon, 14.9 µM; in the assay with UACC-62 melanoma, 0.531 µM.

As for `Nc1nc(Cl)c2ncn(Cc3cccc(CCl)c3)c2n1`, the TGI in the assay on A549 NSCLC came out at 29.9 µM; in the assay with CAKI-1 renal, 5.37 µM; in the assay with SNB-19 CNS it was 20.6 µM; with M14 melanoma it was 12.9 µM; with OVCAR-4 ovarian, 5.07 µM; in the assay on SF-268 CNS it was 18.9 µM. In addition, the TGI came to 4.23 µM in the assay with NCI-H23 lung; 12.4 µM in the assay on ACHN renal; 18.6 µM in the assay on DU-145 prostate; 20.7 µM with UACC-257 melanoma; 22.1 µM with TK-10 renal; 21.2 µM in the assay on EKVX NSCLC. In addition, the TGI with KM12 colon is 16 µM; with MCF7 breast, > 31 µM; in the assay on SK-OV-3 ovarian it was 50.8 µM; with HCT-15 colon it was 5.58 µM; in the assay on UACC-62 melanoma, 10.9 µM; in the assay on MDA-MB-231 breast, 27.6 µM.

Turning to `O=C1OCC(c2ccc(Cl)cc2)=C1Cl`, the TGI in the assay with A549 NSCLC is > 100 µM; in the assay on CAKI-1 renal it was 88.4 µM; in the assay on SNB-19 CNS it was > 100 µM; in the assay with M14 melanoma, 41.8 µM; in the assay on OVCAR-4 ovarian, > 100 µM; in the assay with SF-268 CNS, 70 µM. Besides, the TGI was 54.6 µM in the assay with NCI-H23 lung; > 100 µM in the assay on ACHN renal; > 100 µM with DU-145 prostate; > 100 µM with UACC-257 melanoma; 60.6 µM with TK-10 renal; > 100 µM in the assay on EKVX NSCLC. Further, the TGI in the assay on KM12 colon was 36 µM; in the assay with MCF7 breast, 44.6 µM; in the assay with SK-OV-3 ovarian, > 100 µM; in the assay with HCT-15 colon it was > 100 µM; in the assay with UACC-62 melanoma, 45.9 µM; in the assay with MDA-MB-231 breast, 98.6 µM.

For the molecule `COc1ccccc1/C=C1\S/C(=N/Nc2nc(C)c(C(C)=O)s2)NC1=O`, the TGI in the assay with A549 NSCLC is > 100 µM; in the assay on MDA-N it was 88.1 µM; in the assay with CAKI-1 renal, > 100 µM; in the assay with SNB-19 CNS it was > 100 µM; in the assay on M14 melanoma, > 100 µM; with OVCAR-4 ovarian, > 100 µM. In addition, the TGI in the assay on SF-268 CNS was 96.6 µM; in the assay on NCI-H23 lung, > 100 µM; in the assay on ACHN renal, > 100 µM; in the assay on DU-145 prostate, > 100 µM; with UACC-257 melanoma, > 100 µM; with TK-10 renal, > 100 µM. Besides, the TGI is > 100 µM in the assay on KM12 colon; 67 µM in the assay on MCF7 breast; > 100 µM in the assay on SK-OV-3 ovarian; > 100 µM in the assay with UACC-62 melanoma; 65 µM in the assay on MDA-MB-231 breast.

As for `C/C(=N\Nc1nc2ccccc2[nH]1)c1cnccn1`, the TGI was > 40.5 µM with A549 NSCLC; > 100 µM with MDA-N; 14.9 µM in the assay with CAKI-1 renal; > 100 µM with SNB-19 CNS; 4.66 µM with M14 melanoma; > 100 µM with OVCAR-4 ovarian. Moreover, the TGI with SF-268 CNS is > 100 µM; with NCI-H23 lung, > 30.7 µM; with UACC-257 melanoma, > 31 µM; in the assay on TK-10 renal, > 66.5 µM; in the assay on EKVX NSCLC, > 34.4 µM; with KM12 colon it was 22.4 µM. The TGI is > 66.8 µM in the assay on MCF7 breast; > 100 µM in the assay on SK-OV-3 ovarian; > 100 µM in the assay on HCT-15 colon; > 22.3 µM with UACC-62 melanoma; > 57.8 µM with MDA-MB-231 breast.
